Read-outs that look alike come from different tables or passages of the source.

In one data set the target is T1, ROCK II (Homo sapiens, UniProt O75116).
T1 construct: purchased Cycle, Nagoya, Japan CY-1160
Nature of the data set: Enzyme-based ROCK II inhibitory activity assay (ELISA, Rho kinase assay kit CY-1160). The format is biochemical. The note with it: for inhibition at 10 µM: read-out: Inhibition of ROCKII (%); for IC50: read-out: IC50 against ROCK II.

Another data set has as its system ROCK. Details: method as in PMID 18638453. The note with it: compared with its in-vitro enzyme-based ROCK II activity; cited from earlier work.
The conditions of data set [1]: undesired pharmacokinetic properties, not suitable for non-topical administration; cited from earlier work.
The mark [2] stands for this setting: full concentration-response plots.

T1 sequence (O75116 whole entry): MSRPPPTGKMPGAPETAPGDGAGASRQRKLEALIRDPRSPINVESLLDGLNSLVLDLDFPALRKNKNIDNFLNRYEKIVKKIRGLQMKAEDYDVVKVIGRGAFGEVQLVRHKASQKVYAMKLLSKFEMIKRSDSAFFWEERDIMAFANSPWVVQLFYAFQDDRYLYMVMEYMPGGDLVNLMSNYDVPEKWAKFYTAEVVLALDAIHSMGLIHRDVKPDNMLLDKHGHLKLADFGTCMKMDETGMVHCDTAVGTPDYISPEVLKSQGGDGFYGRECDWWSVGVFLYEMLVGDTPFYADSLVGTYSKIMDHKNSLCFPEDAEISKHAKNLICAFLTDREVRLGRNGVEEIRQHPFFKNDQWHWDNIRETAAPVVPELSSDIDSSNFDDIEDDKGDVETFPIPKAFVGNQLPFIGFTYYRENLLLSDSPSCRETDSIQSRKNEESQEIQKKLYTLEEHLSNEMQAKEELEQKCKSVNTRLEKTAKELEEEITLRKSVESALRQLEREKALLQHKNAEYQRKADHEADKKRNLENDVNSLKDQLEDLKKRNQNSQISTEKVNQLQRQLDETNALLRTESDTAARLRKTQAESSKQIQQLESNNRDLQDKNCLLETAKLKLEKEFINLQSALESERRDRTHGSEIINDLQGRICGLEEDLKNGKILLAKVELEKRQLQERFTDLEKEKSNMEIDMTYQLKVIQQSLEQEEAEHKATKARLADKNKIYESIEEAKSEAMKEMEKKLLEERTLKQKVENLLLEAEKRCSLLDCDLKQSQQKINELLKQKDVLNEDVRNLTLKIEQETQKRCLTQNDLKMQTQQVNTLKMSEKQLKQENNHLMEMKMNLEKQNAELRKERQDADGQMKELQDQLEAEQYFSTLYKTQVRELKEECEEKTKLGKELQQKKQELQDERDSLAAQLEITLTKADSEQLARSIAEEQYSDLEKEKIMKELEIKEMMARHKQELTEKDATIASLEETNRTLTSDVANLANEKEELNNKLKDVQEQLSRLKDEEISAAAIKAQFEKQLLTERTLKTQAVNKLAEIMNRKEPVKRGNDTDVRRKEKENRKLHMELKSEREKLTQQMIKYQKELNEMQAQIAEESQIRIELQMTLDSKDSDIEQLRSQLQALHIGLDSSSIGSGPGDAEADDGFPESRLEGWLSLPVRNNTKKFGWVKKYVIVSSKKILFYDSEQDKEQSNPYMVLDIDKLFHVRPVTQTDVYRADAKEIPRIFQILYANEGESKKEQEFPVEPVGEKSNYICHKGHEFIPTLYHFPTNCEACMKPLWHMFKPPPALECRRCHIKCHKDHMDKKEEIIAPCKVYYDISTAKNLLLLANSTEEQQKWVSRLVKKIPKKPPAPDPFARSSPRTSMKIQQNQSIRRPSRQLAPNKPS
Description for ROCK II: Enzyme-based ROCK II inhibitory activity studies
The enzyme-based ROCK II inhibitory activity assay was performed using the Rho kinase assay kit (CY-1160, Cycle, Nagoya, Japan). All operation was guided by the manufacturer’s instructions. Briefly, the compounds at 10 µM were pre-incubated in a system wherein ROCK II (0.02 ng/µL) phosphorylates the myosin-binding subunit (MBS) of kinase substrate pre-absorbed onto the microplate in the presence of Mg^2+ and ATP. Then, the system was washed after incubation at 30 ^◦C for 30 min. 100 µL of antibody was added to the wells and then incubated for 30 min at room temperature. 100 µL of substrate reagent and 100 µL stop solution were successively added to each well. The plates were read on the Viewlux in HTRF mode within 30 min.
All compounds were initially evaluated for their percentage inhibition against ROCK II with a ROCK II assay kit (CY-1160, Cycle, Japan).

The compound `O=C(Nc1nc(-c2cccnc2)c(CN2CCOCC2)s1)c1ccncc1` [4i, N-(5-(morpholinomethyl)-4-(pyridin-3-yl)thiazol-2-yl) isonicotinamide] yielded a melting point of 185 to 187 °C. Moreover, the inhibition at 10 µM on ROCK II (compound concentration 10 µM) was determined as 51.1%. Also, the IC50 at ROCK II (setting [2]) is 9830 ± 1450 nM.
On to `O=C(Nc1nc(-c2ccncc2)c(CN2CCOCC2)s1)c1ccncc1` [4s, N-(5-(morpholinomethyl)-4-(pyridin-4-yl)thiazol-2-yl) isonicotinamide], for which the melting point lay within 175 to 178 °C. Further, the inhibition at 10 µM at ROCK II (compound concentration 10 µM) is 58.1%. The IC50 on ROCK II (setting [2]) was 8560 nM.
With `O=C(Nc1nc(-c2ccncc2)cs1)C1COc2ccccc2O1` (stereo not shown) [II, reference compound], the inhibition at 10 µM at ROCK II (compound concentration 10 µM) was 91.3%. The IC50 on ROCK II (setting [2]) stood at 10 ± 3 nM. In addition, the “potency in a cell-based assay” value in the data set with ROCK is “much less potent”.
Compound `O=C(Nc1nc(-c2cccnc2)c(CN2CCOCC2)s1)c1ccc(Cl)c(Cl)c1` [4d, 3,4-Dichloro-N-(5-(morpholinomethyl)-4-(pyridin-3-yl)thiazol-2-yl) benzamide] yielded a melting point of 208 to 210 °C. Further, at ROCK II (compound concentration 10 µM), the inhibition at 10 µM amounted to 42.9%.
On to `O=C(Nc1nc(-c2ccncc2)c(CN2CCOCC2)s1)c1ccc(Cl)c(Cl)c1` [4p, 3,4-Dichloro-N-(5-(morpholinomethyl)-4-(pyridin-4-yl)thiazol-2-yl) benzamide], for which the melting point was 163 to 164 °C. Moreover, the inhibition at 10 µM on ROCK II (compound concentration 10 µM) was found to be 43.5%.
`O=C(Nc1nc(-c2ccncc2)c(CN2CCCCC2)s1)c1cccnc1` [4u, N-(5-(Piperidin-1-ylmethyl)-4-(pyridin-4-yl)thiazol-2-yl) nicotinamide] showed a melting point of 169 to 171 °C. Moreover, the inhibition at 10 µM at ROCK II (compound concentration 10 µM) worked out at 38.1%.
On to “N-(5-((4-Methylpiperazin-1-yl) methyl)-4- (pyridin-4-yl) thiazol-2-yl) isonicotinamide [4q]”, for which, on ROCK II (compound concentration 10 µM), the “Inhibition of ROCKII (%)” value is on record as 48.2%.
For `Cc1ccc(C(=O)Nc2nc(-c3cccnc3)c(CN3CCOCC3)s2)cc1` [4a, 4-Methyl-N-(5-(morpholinomethyl)-4-(pyridin-3-yl)thiazol-2-yl) benzamide], the melting point lay in the range of 198 to 199 °C. The inhibition at 10 µM on ROCK II (compound concentration 10 µM) came out at 46.3%.
Compound `O=C(Nc1nc(-c2ccncc2)c(CN2CCOCC2)s1)c1cccnc1` [4t, N-(5-(Morpholinomethyl)-4-(pyridine-4-yl)thiazol-2-yl) nicotinamide] yielded a melting point of 178 to 180 °C. In addition, the inhibition at 10 µM on ROCK II (compound concentration 10 µM) was 52.2%. The IC50 at ROCK II (setting [2]) turned out to be 9120 ± 2460 nM.
The compound `CN(C)Cc1sc(NC(=O)c2ccncc2)nc1-c1cccnc1` [4h, N-(5-((dimethylamino)methyl)-4-(pyridin-3-yl)thiazol-2-yl) isonicotinamid] returned a melting point of 201 to 202 °C. Moreover, the inhibition at 10 µM on ROCK II (compound concentration 10 µM) worked out at 35.3%.
As to `O=C(Nc1nc(-c2cccnc2)c(CN2CCOCC2)s1)C1COc2ccccc2O1` (stereo not shown) [4l, N-(5-(morpholinomethyl)-4-(pyridin-3-yl)thiazol-2-yl)-2,3-dihydrobenzo[b] [1,4] dioxine-2-carboxamide], the melting point was 177 to 179 °C. In addition, on ROCK II (compound concentration 10 µM), the inhibition at 10 µM was determined as 73.8%. Further, on ROCK II (setting [2]), the IC50 is 1020 ± 70 nM.
In turn, `O=C(Nc1nc(-c2cccnc2)c(CN2CCCC2)s1)C1COc2ccccc2O1` (stereo not shown) [4k, N-(4-(pyridin-3-yl)-5-(pyrrolidin-1-ylmethyl)thiazol-2-yl)-2,3-dihydrobenzo[b] [1,4] dioxine-2-carboxamide] registered a melting point of 181 to 182 °C. Also, the inhibition at 10 µM at ROCK II (compound concentration 10 µM) was 61.3%. The IC50 on ROCK II (setting [2]) worked out at 1560 ± 230 nM.
Regarding `CN1CCN(Cc2sc(NC(=O)c3ccc(Cl)c(Cl)c3)nc2-c2cccnc2)CC1` [4e, 3,4-Dichloro-N-(5-((4-methylpiperazin-1-yl)methyl)-4-(pyridin-3-yl)thiazol-2-yl) benzamide], the melting point was in the range of 179 to 181 °C. Also, on ROCK II (compound concentration 10 µM), the inhibition at 10 µM worked out at 27.9%.
On the same counts, the results for `O=C(Nc1nc(-c2ccncc2)c(CN2CCCC2)s1)c1ccncc1` [4r, N-(4-(Pyridin-4-yl)-5-(pyrrolidin-1-ylmethyl)thiazol-2-yl) isonicotinamide] are 192 to 195 °C and 47.6%.
The compound `CN1CCN(Cc2sc(NC(=O)c3ccccc3)nc2-c2cccnc2)CC1` [4g, N-(5-((4-Methylpiperazin-1-yl)methyl)-4-(pyridin-3-yl)thiazol-2-yl) benzamide] yielded a melting point of 198 to 199 °C. Moreover, the inhibition at 10 µM on ROCK II (compound concentration 10 µM) was found to be 29.6%.
Take `CN(C)CCOc1cc(-c2cn[nH]c2)ccc1NC(=O)[C@H]1Cc2ccccc2CN1` [I]: in data set [1], the bioavailability entry is “low bioavailability” and the clearance result is listed as “high clearance”.
On to `Cc1ccc(C(=O)Nc2nc(-c3cccnc3)c(CN(C)C(C)C)s2)cc1` [4c, N-(5-((i-Propyl(methyl)amino)methyl)-4-(pyridin-3-yl)thiazol-2-yl)-4-methylbenzamide], for which the inhibition at 10 µM on ROCK II (compound concentration 10 µM) turned out to be 32.8%.
Turning to `Cc1ccc(C(=O)Nc2nc(-c3ccncc3)c(CN3CCN(C)CC3)s2)cc1` [4n, 4-Methyl-N-(5-((4-methylpiperazin-1-yl)methyl)-4-(pyridin-4-yl)thiazol-2-yl) benzamide], the melting point was 148 to 150 °C. The inhibition at 10 µM on ROCK II (compound concentration 10 µM) came to 42.4%.
For the compound `O=C(Nc1nc(-c2ccncc2)c(CN2CCOCC2)s1)C1COc2ccccc2O1` (stereo not shown) [4v, N-(5-(morpholinomethyl)-4-(pyridin-4-yl)thiazol-2-yl)-2,3-dihydrobenzo[b] [1,4] dioxine-2-carboxamide], the melting point fell in the range of 178 to 180 °C. Moreover, the inhibition at 10 µM on ROCK II (compound concentration 10 µM) was determined as 84.4%. In addition, on ROCK II (setting [2]), the IC50 turned out to be 20 nM. In addition, the IC50 on ROCK II (value stated in text in nM) is 20 nM.
Compound `CN1CCN(Cc2sc(NC(=O)c3ccc(Cl)c(Cl)c3)nc2-c2ccncc2)CC1` [4o, 3,4-Dichloro-N-(5-((4-methylpiperazin-1-yl)methyl)-4-(pyridin-4-yl)thiazol-2-yl) benzamide] registered a melting point of 201 to 203 °C. The inhibition at 10 µM on ROCK II (compound concentration 10 µM) was found to be 44.8%.
`CN(C)Cc1sc(NC(=O)C2COc3ccccc3O2)nc1-c1cccnc1` (stereo not shown) [4j, N-(5-((dimethylamino)methyl)-4-(pyridin-3-yl)thiazol-2-yl)-2,3-dihydrobenzo[b] [1,4] dioxine-2-carboxamide] showed a melting point of 192 to 196 °C. Moreover, the inhibition at 10 µM at ROCK II (compound concentration 10 µM) stood at 68.1%. For the same compound, the IC50 on ROCK II (setting [2]) is 960 ± 120 nM.
In the case of `Cc1ccc(C(=O)Nc2nc(-c3cccnc3)c(CN3CCN(C)CC3)s2)cc1` [4b, 4-Methyl-N-(5-((4-methylpiperazin-1-yl)methyl)-4-(pyridin-3-yl)thiazol-2-yl) benz-amide], the melting point was 180 to 182 °C. Besides, the inhibition at 10 µM at ROCK II (compound concentration 10 µM) was 32.7%.
In the case of `CC(C)N(C)Cc1sc(NC(=O)c2ccc(Cl)c(Cl)c2)nc1-c1cccnc1` [4f, 3,4-Dichloro-N-(5-((i-propyl(methyl)amino)methyl)-4-(pyridin-3-yl)thiazol-2-yl) benzamide], the melting point lay within 171 to 172 °C. The inhibition at 10 µM on ROCK II (compound concentration 10 µM) stood at 34.6%.
Compound `Cc1ccc(C(=O)Nc2nc(-c3ccncc3)c(CN3CCOCC3)s2)cc1` [4m, 4-Methyl-N-(5-(morpholinomethyl)-4-(pyridin-4-yl)thiazol-2-yl) benzamide] registered a melting point of 148 to 149 °C. Further, on ROCK II (compound concentration 10 µM), the inhibition at 10 µM came out at 48.6%.

These data come from article PMC8653655, “The Design, Synthesis and Evaluation of Rho-kinase Inhibitory Activity of 4-aryl-thiazole-2-amines” (Iranian Journal of Pharmaceutical Research : IJPR, 2021).
